Results taken from patent US20240398817A1, “CARDIO- AND RENOSAFE ANTIDIABETIC THERAPY” (priority 2018, published 2024).

Test system: patients with type 2 diabetes at high vascular risk
Assay: Cardiovascular and Renal Outcomes Trial: linagliptin 5 mg once daily vs placebo on top of standard of care
Format: in vivo
Conditions: for 3P-MACE: hazard ratio (95% CI) vs placebo: Cox regression
Protocol: The effect of linagliptin on cardiovascular risk in adult patients with type 2 diabetes mellitus and with increased CV risk evidenced by a history of established macrovascular or renal disease (e.g. as defined herein) was evaluated in a multi-center, multi-national, randomized, double-blind parallel group trial. The trial compared the risk of experiencing a major adverse cardiovascular event (MACE) between linagliptin and placebo when these were added to and used concomitantly with standard of care treatments for diabetes (HbA1c), cardiovascular risk factors and renal disease.
The primary endpoint in this trial was the time to first occurrence of three point (3P) MACE. A major adverse cardiac event was defined as a cardiovascular death or a nonfatal myocardial infarction (MI) or a nonfatal stroke. The statistical analysis plan tested for non-inferiority for the occurrence of (3P) MACE. […] The secondary endpoint was a renal composite, defined as renal death or sustained end stage renal disease or sustained decrease of 40% or more in eGFR.
Type 2 diabetes patient with insufficient glycemic control (naïve or pre-treated with any antidiabetic background medication, excluding treatment with GLP-1 receptor agonists, DPP-4inhibitors or SGLT-2 inhibitors if ≥consecutive 7 days, e.g. having HbA1c 6.5-10%), and high risk of cardiovascular events, e.g. defined by: • albuminuria (micro or macro) and previous macrovascular disease: e.g. defined according to Condition I as indicated below; • and/or • impaired renal function: e.g. as defined according to Condition II as indicated below;
Background and aims: People with type 2 diabetes (T2D) are at increased risk for hospitalization for heart failure (hHF), particularly in the setting of concomitant cardiovascular (CV) and/or kidney disease. […] Here we present analyses of HF outcomes with the DPP-4 inhibitor linagliptin (LINA) vs. placebo (PBO) from a Cardiovascular and Renal Outcomes Trial assessing cardiovascular safety and renal microvascular outcome in patients with type 2 diabetes at high vascular risk, a large CV outcomes trial that enrolled participants with T2D at high risk for hHF due to concomitant CV and/or chronic kidney disease. Materials and methods: People with T2D and concomitant CV and/or kidney disease were randomized to receive LINA 5 mg, or PBO once daily (1:1), on top of standard of care. All hHF, CV outcomes, and deaths were centrally adjudicated, with individual and composite HF-related outcomes analyses comparing LINA vs. placebo. Investigator-reported HF-related adverse events, whether or not confirmed by adjudication, were also analyzed. A Cox proportional hazards model adjusting for region and history of HF was used for analyses of first events. Recurrent hHF events were analyzed using a negative binomial model.
Methods: The present Cardiovascular and Renal Outcomes Trial randomized people with T2D and i) concomitant CV disease with UACR >30 mg/g or ii) prevalent CKD (i.e. GFR <45 ml/min/1.73m2 and/or UACR >200 mg/g) to receive the DPP-4 inhibitor linagliptin (5 mg) or placebo once daily in a double-blind fashion. The primary CV endpoint was 3P-MACE, with a key secondary kidney endpoint (adjudicated ESKD, renal death, or sustained ≥40% decrease in eGFR from baseline) and other renal outcomes (including albuminuria and eGFR slope) also assessed. Subgroups were assessed by baseline kidney function (eGFR ≥/<45 ml/min/1.73m2and eGFR ≥/<30, 45 or 60 ml/min/1.73m2).
Adults with type 2 diabetes, HbA1c 6.5-10.0% inclusive, and high CV risk were eligible for inclusion. […] Macrovascular disease eligibility criteria was based on documented and confirmed history of myocardial infarction, coronary artery disease, stroke, carotid artery disease, or peripheral artery disease. Participants with end-stage kidney disease (ESKD), defined as eGFR <15 or requiring maintenance dialysis, were excluded.

[1] = all patients, listed as Lingagliptin
[2] = all patients, listed as linagliptin
[3] = both, human, in vivo, 5 mg, 1.9 years
[4] = eGFR ≥30 to <45 mL/min/1.73 m^2

CC#CCn1c(N2CCC[C@@H](N)C2)nc2c1c(=O)n(Cc1nc(C)c3ccccc3n1)c(=O)n2C [Linagliptin, 1-[(4-methyl-quinazolin-2-yl)methyl]-3-methyl-7-(2-butyn-1-yl)-8-(3-(R)-amino-piperidin-1-yl)-xanthine]
3P-MACE: rate/100 patient-years (all patients): 4.69 per 100 patient-years | All-cause death: rate per 100 person-years (all patients): 4.69 per 100 person-years | All-cause mortality: incidence rate per 1000 PY (all patients): 46.9 per 1000 patient years | All-cause mortality: number of subjects (all patients): 367 | Hospitalization for heart failure: incidence rate/1000 patient-years (all patients): 27.7 per 1000 patient years | Hospitalization for heart failure: number of patients (all patients): 209 | Hospitalization for heart failure: rate/100 patient-years (all patients): 2.77 per 100 patient-years | Renal composite (40% eGFR): incidence rate per 1000 PY (all patients): 48.9 per 1000 patient years | Renal composite (40% eGFR): rate/100 patient-years (all patients): 4.89 per 100 patient-years | Renal composite (renal death, sustained ESRD, sustained decrease of 40% or more in eGFR): number of subjects (all patients): 327 | Renal death or sustained ESKD: number of patients (all patients): 136 | Renal death or sustained ESKD: patients, % (all patients): (3.9) % | Renal death or sustained ESKD: rate/1000 patient-years (all patients): 17.8 per 1000 patient years | Renal death, or sustained ESKD: rate/100 patient-years (all patients): 1.78 per 100 patient-years | Renal death, sustained ESKD, or sustained ≥ doubling of se-creatinine from baseline: n (all patients): 219 | Renal death, sustained ESKD, or ≥ doubling of se-creatinine: % (all patients): (6.3) % | Renal death, sustained ESKD, or ≥ doubling of se-creatinine: rate/100 patient-years (all patients): 3.21 per 100 patient-years | 3P-MACE: hazard ratio (95% CI) vs placebo (all patients): 1.02 | 3P-MACE: hazard ratio (95% CI) vs placebo [1]: 1.02 (0.89. 1.17) | 3P-MACE (CV death, non-fatal MI, non-fatal stroke): number of subjects with event (all patients, n = 3494): 434 | Hospitalization for heart failure: hazard ratio (95% CI) vs placebo (all patients, listed as LINA): 0.90 | Renal composite (40% eGFR): hazard ratio (CI) vs placebo (all patients, listed as LINA): 1.04 | 3P-MACE: subjects with event, % [1]: 12.4% | Renal composite (40% eGFR): hazard ratio (CI) vs placebo [1]: 1.04 (0.89, 1.22) | Renal composite (40% eGFR): subjects, % [1]: 9.4% | 3P-MACE: rate/100 patient-years [2]: 5.77 per 100 patient-years | 3P-MACE: subjects with event, % [2]: 12.4% | All-cause mortality: hazard ratio (95% CI) vs placebo [2]: 0.98 | All-cause mortality: subjects, % [2]: 10.5% | Hospitalization for heart failure: hazard ratio (95% CI) vs placebo [2]: 0.90 | Hospitalization for heart failure: patients, % [2]: 6.0% | Renal composite (40% eGFR): hazard ratio (CI) vs placebo [2]: 1.04 | Renal composite (40% eGFR): subjects, % [2]: 9.4% | Renal death or sustained ESKD: hazard ratio (95% CI) vs placebo [2]: 0.87 | Renal death or sustained ESKD: patients, % [2]: 3.9% | Fatal cases of pancreatitis: % [3]: 0.1% | Fatal cases of pancreatitis: n [3]: 2 | 3-point MACE: hazard ratio vs placebo (eGFR <30 mL/min/1.73 m^2): 0.97 | 3-point MACE: patients with event/patients analyzed (eGFR <30 mL/min/1.73 m^2): 101/516 | Key secondary kidney outcome: hazard ratio vs placebo (eGFR <30 mL/min/1.73 m^2): 1.05 | Key secondary kidney outcome: patients with event/patients analyzed (eGFR <30 mL/min/1.73 m^2): 133/516 | 3P-MACE: % (eGFR < 45 (n = 3000)): (16.6) % | 3P-MACE: HR (95% CI) vs placebo (eGFR < 45 (n = 3000)): 1.02 (0.85, 1.21) | 3P-MACE: n (eGFR < 45 (n = 3000)): 250 | 3P-MACE: rate/100 patient-years (eGFR < 45 (n = 3000)): 7.61 per 100 patient-years | Hospitalized heart failure: % (eGFR < 45 (n = 3000)): (8.9) % | Hospitalized heart failure: HR (95% CI) vs placebo (eGFR < 45 (n = 3000)): 0.87 (0.69, 1.10) | Hospitalized heart failure: n (eGFR < 45 (n = 3000)): 135 | Hospitalized heart failure: rate/100 patient-years (eGFR < 45 (n = 3000)): 4.13 per 100 patient-years | Key secondary kidney endpoint: % (eGFR < 45 (n = 3000)): (14.7) % | Key secondary kidney endpoint: HR (95% CI) vs placebo (eGFR < 45 (n = 3000)): 0.97 (0.80, 1.17) | Key secondary kidney endpoint: n (eGFR < 45 (n = 3000)): 222 | Key secondary kidney endpoint: rate/100 patient-years (eGFR < 45 (n = 3000)): 7.83 per 100 patient-years | Renal death, or sustained ESKD: % (eGFR < 45 (n = 3000)): (8.2) % | Renal death, or sustained ESKD: HR (95% CI) vs placebo (eGFR < 45 (n = 3000)): 0.82 (0.64, 1.04) | Renal death, or sustained ESKD: n (eGFR < 45 (n = 3000)): 124 | Renal death, or sustained ESKD: rate/100 patient-years (eGFR < 45 (n = 3000)): 3.78 per 100 patient-years | Renal death, sustained ESKD, or ≥ doubling of se-creatinine: % (eGFR < 45 (n = 3000)): (10.9) % | Renal death, sustained ESKD, or ≥ doubling of se-creatinine: HR (95% CI) vs placebo (eGFR < 45 (n = 3000)): 0.87 (0.70, 1.07) | Renal death, sustained ESKD, or ≥ doubling of se-creatinine: n (eGFR < 45 (n = 3000)): 165 | Renal death, sustained ESKD, or ≥ doubling of se-creatinine: rate/100 patient-years (eGFR < 45 (n = 3000)): 5.69 per 100 patient-years | Risk of composite microvascular outcome 1 vs placebo, in words (eGFR decrease 50%): significantly reduced | Risk of composite microvascular outcome 2 and 3 vs placebo, in words (eGFR decrease of 40% and 30%): also significantly reduced | 3-point MACE: hazard ratio vs placebo [4]: 1.07 | 3-point MACE: patients with event/patients analyzed [4]: 149/994 | Key secondary kidney outcome: hazard ratio vs placebo [4]: 0.95 | Key secondary kidney outcome: patients with event/patients analyzed [4]: 89/994 | 3P-MACE: % (eGFR ≥ 45 (n = 3979)): (9.3) % | 3P-MACE: HR (95% CI) vs placebo (eGFR ≥ 45 (n = 3979)): 1.03 (0.84, 1.26) | 3P-MACE: n (eGFR ≥ 45 (n = 3979)): 184 | 3P-MACE: rate/100 patient-years (eGFR ≥ 45 (n = 3979)): 4.34 per 100 patient-years | Hospitalized heart failure: % (eGFR ≥ 45 (n = 3979)): (3.7) % | Hospitalized heart failure: HR (95% CI) vs placebo (eGFR ≥ 45 (n = 3979)): 0.97 (0.70, 1.34) | Hospitalized heart failure: n (eGFR ≥ 45 (n = 3979)): 74 | Hospitalized heart failure: rate/100 patient-years (eGFR ≥ 45 (n = 3979)): 1.73 per 100 patient-years | Key secondary kidney endpoint: % (eGFR ≥ 45 (n = 3979)): (5.3) % | Key secondary kidney endpoint: HR (95% CI) vs placebo (eGFR ≥ 45 (n = 3979)): 1.19 (0.89, 1.58) | Key secondary kidney endpoint: n (eGFR ≥ 45 (n = 3979)): 105 | Key secondary kidney endpoint: rate/100 patient-years (eGFR ≥ 45 (n = 3979)): 2.72 per 100 patient-years | Renal death, or sustained ESKD: % (eGFR ≥ 45 (n = 3979)): (0.6) % | Renal death, or sustained ESKD: HR (95% CI) vs placebo (eGFR ≥ 45 (n = 3979)): 1.50 (0.61, 3.67) | Renal death, or sustained ESKD: n (eGFR ≥ 45 (n = 3979)): 12 | Renal death, or sustained ESKD: rate/100 patient-years (eGFR ≥ 45 (n = 3979)): 0.28 per 100 patient-years | Renal death, sustained ESKD, or ≥ doubling of se-creatinine: % (eGFR ≥ 45 (n = 3979)): (2.7) % | Renal death, sustained ESKD, or ≥ doubling of se-creatinine: HR (95% CI) vs placebo (eGFR ≥ 45 (n = 3979)): 1.08 (0.73, 1.59)
